# Test results from patent US7196110B2, “N-substituted tricyclic 3-aminopyrazoles as inhibitors for the treatment of cell proliferative disorders” (Janssen Phamaceutica N.V., priority 2002, dated 2007).
# Target: T1, PDGF-receptor beta enzyme comprising the tyrosine kinase domain (Homo sapiens, UniProt P09619)
# T1 construct: from amino acid 545 to 1106 of GenBank Access NO: AAA36427
# Experiment: Inhibition of PDGF-receptor kinase activity (cell-free, PLC1 peptide, 33P Flashplate)
# Assay type: biochemical
# Conditions: PDGF-R kinase activity; for inhibition at 10 µM: compound at 10 uM, read-out: Percent Inhibition @ 10 uM; for IC50: read-out: IC50
# Procedure, shortened: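 The IC50 is the inhibitor level halving kinase activity relative to inhibitor-free wells, measured as 33P captured on a streptavidin-bound biotin-PLC1 peptide. The reaction ran 60 min at 30 °C in pH 8 Tris buffer with 1 mM DTT, 5 μM ATP and the 545–1106 kinase-domain enzyme.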
# T1 sequence (P09619 545-1106): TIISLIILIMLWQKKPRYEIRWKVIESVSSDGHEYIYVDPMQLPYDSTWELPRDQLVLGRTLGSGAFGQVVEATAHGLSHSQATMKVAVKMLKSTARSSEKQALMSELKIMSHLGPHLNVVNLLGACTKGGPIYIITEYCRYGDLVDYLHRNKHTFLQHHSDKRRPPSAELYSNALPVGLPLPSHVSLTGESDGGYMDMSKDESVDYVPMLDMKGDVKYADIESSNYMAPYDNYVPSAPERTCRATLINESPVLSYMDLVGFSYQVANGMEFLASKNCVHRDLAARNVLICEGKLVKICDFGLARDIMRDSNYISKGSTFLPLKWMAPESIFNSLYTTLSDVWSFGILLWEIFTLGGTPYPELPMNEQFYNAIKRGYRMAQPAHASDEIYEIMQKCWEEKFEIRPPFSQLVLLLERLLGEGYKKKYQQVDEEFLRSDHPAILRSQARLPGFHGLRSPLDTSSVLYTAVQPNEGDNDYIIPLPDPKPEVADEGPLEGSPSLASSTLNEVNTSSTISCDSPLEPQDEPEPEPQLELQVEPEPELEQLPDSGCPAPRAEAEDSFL
compound,measurement,value
"COc1cc2c(cc1OC)-c1n[nH]c(Nc3cccc(C(=O)N4CCN(C)CC4)c3)c1C2 [Compound 319, [3-(6,7-Dimethoxy-2,4-dihydro-indeno[1,2-c]pyrazol-3-ylamino)-phenyl]-(4-methyl-piperazin-1-yl)-methanone]",inhibition at 10 µM,80.5%
same,IC50,2200 nM
"COc1cc2c(cc1OC)-c1n[nH]c(NCc3ccc(C)c(C)c3)c1C2 [Compound 320, (6,7-Dimethoxy-2,4-dihydro-indeno[1,2-c]pyrazol-3-yl)-(3,4-dimethyl-benzyl)-amine]",inhibition at 10 µM,70.5%
same,IC50,1960 nM
"COc1cc2c(cc1OC)-c1n[nH]c(NCc3c(F)cccc3F)c1C2 [Compound 321, (2,6-Difluoro-benzyl)-(6,7-dimethoxy-2,4-dihydro-indeno[1,2-c]pyrazol-3-yl)-amine]",inhibition at 10 µM,77%
same,IC50,7.45 nM
"COc1cc2c(cc1OC)-c1n[nH]c(NCc3cccc(OC)c3OC)c1C2 [Compound 322, (2,3-Dimethoxy-benzyl)-(6,7-dimethoxy-2,4-dihydro-indeno[1,2-c]pyrazol-3-yl)-amine]",inhibition at 10 µM,22%
same,IC50,54.7 nM
"COc1cc2c(cc1OC)-c1n[nH]c(NCc3cc(F)ccc3F)c1C2 [Compound 323, (2,5-Difluoro-benzyl)-(6,7-dimethoxy-2,4-dihydro-indeno[1,2-c]pyrazol-3-yl)-amine]",inhibition at 10 µM,60.5%
same,IC50,8710 nM
"COc1cc2c(cc1OC)-c1n[nH]c(NCc3ccccc3F)c1C2 [Compound 325, (6,7-Dimethoxy-2,4-dihydro-indeno[1,2-c]pyrazol-3-yl)-(2-fluoro-benzyl)-amine]",inhibition at 10 µM,61%
same,IC50,96.7 nM
"COc1cc2c(cc1OC)-c1n[nH]c(NCc3cccc(Cl)c3Cl)c1C2 [Compound 326, (2,3-Dichloro-benzyl)-(6,7-dimethoxy-2,4-dihydro-indeno[1,2-c]pyrazol-3-yl)-amine]",inhibition at 10 µM,82%
same,IC50,267 nM
"COc1cc2c(cc1OC)-c1n[nH]c(NCc3cccc(F)c3)c1C2 [Compound 327, (6,7-Dimethoxy-2,4-dihydro-indeno[1,2-c]pyrazol-3-yl)-(3-fluoro-benzyl)-amine]",inhibition at 10 µM,52%
same,IC50,10600 nM
"COc1cc2c(cc1OC)-c1n[nH]c(NCc3ccc(F)cc3F)c1C2 [Compound 328, (2,4-Difluoro-benzyl)-(6,7-dimethoxy-2,4-dihydro-indeno[1,2-c]pyrazol-3-yl)-amine]",inhibition at 10 µM,78.5%
same,IC50,697 nM
"COc1cc2c(cc1OC)-c1n[nH]c(NCc3ccccc3C(F)(F)F)c1C2 [Compound 329, (6,7-Dimethoxy-2,4-dihydro-indeno[1,2-c]pyrazol-3-yl)-(2-trifluoromethyl-benzyl)-amine]",inhibition at 10 µM,58%
same,IC50,76.2 nM
"COc1cc2c(cc1OC)-c1n[nH]c(NCc3ccc(F)cc3)c1C2 [Compound 331, (6,7-Dimethoxy-2,4-dihydro-indeno[1,2-c]pyrazol-3-yl)-(4-fluoro-benzyl)-amine]",inhibition at 10 µM,93%
same,IC50,189 nM
"COc1ccc(OC)c2c1Cc1c-2n[nH]c1Nc1ccccc1 [Compound 332, (5,8-Dimethoxy-2,4-dihydro-indeno[1,2-c]pyrazol-3-yl)-phenyl-amine]",inhibition at 10 µM,90%
same,IC50,372 nM
"COc1cc2c(cc1OC)C(C)c1c-2n[nH]c1NCc1cccc(Cl)c1 (centres unmarked) [Compound 333, (3-Chloro-benzyl)-(6,7-dimethoxy-4-methyl-2,4-dihydro-indeno[1,2-c]pyrazol-3-yl)-amine]",inhibition at 10 µM,73.5%
same,IC50,2550 nM
"Fc1cccc(Nc2n[nH]c3c2Cc2sccc2-3)c1 [Compound 335, (5,7-Dihydro-1-thia-4,5-diaza-cyclopenta[a]pentalen-6-yl)-(3-fluoro-phenyl)-amine]",inhibition at 10 µM,100%
same,IC50,129 nM
"Cc1ccc(Cl)cc1Nc1[nH]nc2c1Cc1ccccc1-2 [Compound 338, (5-Chloro-2-methyl-phenyl)-(2,4-dihydro-indeno[1,2-c]pyrazol-3-yl)-amine]",inhibition at 10 µM,78.5%
same,IC50,451 nM
"Fc1ccc(C(F)(F)F)cc1Nc1[nH]nc2c1Cc1ccccc1-2 [Compound 340, (2,4-Dihydro-indeno[1,2-c]pyrazol-3-yl)-(2-fluoro-5-trifluoromethyl-phenyl)-amine]",inhibition at 10 µM,92.5%
same,IC50,105 nM
"COc1ccc(Cl)cc1Nc1[nH]nc2c1Cc1ccccc1-2 [Compound 342, (5-Chloro-2-methoxy-phenyl)-(2,4-dihydro-indeno[1,2-c]pyrazol-3-yl)-amine]",inhibition at 10 µM,56.5%
same,IC50,26.7 nM
COc1cccc(Nc2[nH]nc3c2Cc2ccccc2-3)c1 [Compound 343],inhibition at 10 µM,99.5%
same,IC50,8.08 nM
"CCOc1cc2c(cc1OCC)C(C)c1c-2n[nH]c1Nc1cccc(F)c1 (centres unmarked) [Compound 344, (6,7-Diethoxy-4-methyl-2,4-dihydro-indeno[1,2-c]pyrazol-3-yl)-(3-fluoro-phenyl)-amine]",inhibition at 10 µM,100%
same,IC50,64.7 nM
"CCOc1cc2c(cc1OCC)C(C)c1c-2n[nH]c1Nc1cccnc1 (centres unmarked) [Compound 345, (6,7-Diethoxy-4-methyl-2,4-dihydro-indeno[1,2-c]pyrazol-3-yl)-pyridin-3-yl-amine]",inhibition at 10 µM,88%
same,IC50,89.3 nM
"CCOc1cc2c(cc1OCC)C(C)c1c-2n[nH]c1Nc1cccc(Br)c1 (centres unmarked) [Compound 346, (3-Bromo-phenyl)-(6,7-diethoxy-4-methyl-2,4-dihydro-indeno[1,2-c]pyrazol-3-yl)-amine]",inhibition at 10 µM,98%
same,IC50,73.9 nM
CCOc1cc2c(cc1OCC)C(C)c1c-2n[nH]c1Nc1ccc(F)c(Cl)c1 (centres unmarked) [Compound 347],inhibition at 10 µM,90.5%
same,IC50,545 nM
"CCOc1cc2c(cc1OCC)C(C)c1c-2n[nH]c1Nc1ccc(F)cc1 (centres unmarked) [Compound 349, (6,7-Diethoxy-4-methyl-2,4-dihydro-indeno[1,2-c]pyrazol-3-yl)-(4-fluoro-phenyl)-amine]",inhibition at 10 µM,78%
same,IC50,80.9 nM
"N#Cc1ccc2c(c1)CCc1c-2n[nH]c1Nc1ccccc1 [Compound 350, 3-Phenylamino-4,5-dihydro-2H-benzo[g]indazole-7-carbonitrile]",inhibition at 10 µM,91%
same,IC50,651 nM
"CC(C)Oc1cc2c(cc1OC(C)C)C(C)c1c-2n[nH]c1Nc1cccc(F)c1 (centres unmarked) [Compound 351, (6,7-Diisopropoxy-4-methyl-2,4-dihydro-indeno[1,2-c]pyrazol-3-yl)-(3-fluoro-phenyl)-amine]",inhibition at 10 µM,93%
same,IC50,400 nM
"CC(C)Oc1cc2c(cc1OC(C)C)C(C)c1c-2n[nH]c1Nc1cccnc1 (centres unmarked) [Compound 352, (6,7-Diisopropoxy-4-methyl-2,4-dihydro-indeno[1,2-c]pyrazol-3-yl)-pyridin-3-yl-amine]",inhibition at 10 µM,86.5%
same,IC50,755 nM
"CC(C)Oc1cc2c(cc1OC(C)C)C(C)c1c-2n[nH]c1Nc1cccc(Br)c1 (centres unmarked) [Compound 353, (3-Bromo-phenyl)-(6,7-diisopropoxy-4-methyl-2,4-dihydro-indeno[1,2-c]pyrazol-3-yl)-amine]",inhibition at 10 µM,88%
same,IC50,359 nM
"CC(C)Oc1cc2c(cc1OC(C)C)C(C)c1c-2n[nH]c1Nc1ccc(F)c(Cl)c1 (centres unmarked) [Compound 354, (3-Chloro-4-fluoro-phenyl)-(6,7-diisopropoxy-4-methyl-2,4-dihydro-indeno[1,2-c]pyrazol-3-yl)-amine]",inhibition at 10 µM,62%
same,IC50,2450 nM
"COc1cccc(Nc2[nH]nc3c2C(C)c2cc(OC(C)C)c(OC(C)C)cc2-3)c1 (centres unmarked) [Compound 355, (6,7-Diisopropoxy-4-methyl-2,4-dihydro-indeno[1,2-c]pyrazol-3-yl)-(3-methoxy-phenyl)-amine]",inhibition at 10 µM,85%
same,IC50,1030 nM
"CC(C)Oc1cc2c(cc1OC(C)C)C(C)c1c-2n[nH]c1Nc1ccc(F)cc1 (centres unmarked) [Compound 356, (6,7-Diisopropoxy-4-methyl-2,4-dihydro-indeno[1,2-c]pyrazol-3-yl)-(4-fluoro-phenyl)-amine]",inhibition at 10 µM,70%
same,IC50,1950 nM
"COc1cc2c(cc1F)Cc1c-2n[nH]c1Nc1cccc(F)c1 [Compound 357, (6-Fluoro-7-methoxy-2,4-dihydro-indeno[1,2-c]pyrazol-3-yl)-(3-fluoro-phenyl)-amine]",inhibition at 10 µM,98.5%
same,IC50,9.42 nM
"Oc1cc2c(cc1O)-c1n[nH]c(Nc3cccc(F)c3)c1C2 [Compound 362, 3-(3-Fluoro-phenylamino)-2,4-dihydro-indeno[1,2-c]pyrazole-6,7-diol]",inhibition at 10 µM,80.5%
same,IC50,784 nM
"COc1cc2c(cc1F)Cc1c-2n[nH]c1Nc1cccnc1 [Compound 364, (6-Fluoro-7-methoxy-2,4-dihydro-indeno[1,2-c]pyrazol-3-yl)-pyridin-3-yl-amine]",inhibition at 10 µM,100%
same,IC50,15.1 nM
"CCOc1cc2c(cc1OCCCO)-c1n[nH]c(Nc3cccc(F)c3)c1C2 [Compound 365, 3-[6-Ethoxy-3-(3-fluoro-phenylamino)-2,4-dihydro-indeno[1,2-c]pyrazol-7-yloxy]-propan-1-ol]",inhibition at 10 µM,99.5%
same,IC50,11.3 nM
"CCOc1cc2c(cc1OCCCO)-c1n[nH]c(Nc3cccc(OC)c3)c1C2 [Compound 366, 3-[6-Ethoxy-3-(3-methoxy-phenylamino)-2,4-dihydro-indeno[1,2-c]pyrazol-7-yloxy]-propan-1-ol]",inhibition at 10 µM,100%
same,IC50,12.1 nM
"CCOc1cc2c(cc1OCCCO)-c1n[nH]c(Nc3cccc(Cl)c3)c1C2 [Compound 367, 3-[3-(3-Chloro-phenylamino)-6-ethoxy-2,4-dihydro-indeno[1,2-c]pyrazol-7-yloxy]-propan-1-ol]",inhibition at 10 µM,97%
same,IC50,8.14 nM
"CCOc1cc2c(cc1OCCCO)-c1n[nH]c(Nc3ccc(F)c(Cl)c3)c1C2 [Compound 368, 3-[3-(3-Chloro-4-fluoro-phenylamino)-6-ethoxy-2,4-dihydro-indeno[1,2-c]pyrazol-7-yloxy]-propan-1-ol]",inhibition at 10 µM,89.5%
same,IC50,62.9 nM
